From patent US10053472B2, “Silicon-based fungicides and process for producing the same” (COUNCIL OF SCIENTIFIC & INDUSTRIAL RESEARCH, priority 2014, dated 2018) come the findings set out here.

Each structure is given as a SMILES string. In brackets after ≈: the same amount, converted by molar mass.

Assay [1] concerns tested plant and human pathogens. Description: Overall antifungal activity, summary of susceptibility testing. The format is cell-based. As to conditions: summary statement on Tables 1 and 2. How it is done: (§1) In vitro antifungal assays were performed by broth microdilution method according to the Clinical and Laboratory Standards Institute (CLSI, formerly NCCL) methods M27-A3 and M-38-A2. The activity was checked against plant pathogenic fungi Fusarium oxysporum CMI 113138, Aspergillus flavus ATCC 11499, Claviceps purpurea CMI 44613, Alternaria solani ATCC 11785, Ustilago maydis PRL 1549 and yeast Dekkera bruxellensis ATCC 36234. Briefly each compound stock was prepared in DMSO at concentration of 12800 μg/ml. For assay compound stocks were serially diluted two fold in microtiter plate and 4 μl of this was used for assay to get a final concentration in the range of 256-2 μg/ml. Spores of the filamentous fungi (˜2×10^4 spores/ml) and yeast cells freshly grown in YPG broth in logarithmic phase (˜2×10^3 cfu/ml) were suspended in the RPMI 1640 medium and 196 μl from these were inoculated in the wells of the plate. The microtitre plate was incubated for 48-72 h. Growth was checked by visual observation and measuring absorbance at 600 nm using microtitre plate reader.
(§2) Antifungal activity of the compounds was also checked against human pathogens Candida albicans ATCC 24433, C. albicans ATCC 10231, Candida glabrata NCYC 388, Candida tropicalis ATCC 750, Cryptococcus neoformans ATCC 34554, Aspergillus niger ATCC 10578, by following procedure described below.

Assay [2] concerns Candida glabrata NCYC 388. Description: Antifungal susceptibility (MIC), human fungal pathogens. The format is cell-based. The following applies: Nakaseomyces glabratus, NCYC388; MIC = concentration exhibiting >90% inhibition of growth vs control; read-out: Minimum Inhibitory Concentration, C.glabrata NCYC 388. On the procedure:
as §1, §2

Assay [3] deals with Candida albicans ATCC 24433. The assay is described as above. In kind it is cell-based. As to conditions: ATCC24433, MIC = concentration exhibiting >90% inhibition of growth vs control, read-out: Minimum Inhibitory Concentration, C.albicans ATCC 24433. How it is done:
as §1, §2

The test system of assay [4] is Aspergillus niger ATCC 10578. Described as above. In kind it is cell-based. As to conditions: ATCC10578, MIC = concentration exhibiting >90% inhibition of growth vs control, read-out: Minimum Inhibitory Concentration, A. niger ATCC 10578. On the procedure:
as §1, §2

The test system of assay [5] is Candida tropicalis ATCC 750. The description is as above. The format is cell-based. The following applies: ATCC750, MIC = concentration exhibiting >90% inhibition of growth vs control, read-out: Minimum Inhibitory Concentration, C.tropicalis ATCC 750. How it is done:
as §1, §2

A further assay has as its system C. albicans ATCC 10231. The assay is described as above. In kind it is cell-based. The following applies: Candida albicans, ATCC10231; MIC = concentration exhibiting >90% inhibition of growth vs control; read-out: Minimum Inhibitory Concentration, C.albicans ATCC 10231. How it is done: as §1, §2
For assay [6], the system named is Cryptococcus neoformans ATCC 34554. The description is as above. The format is cell-based. The following applies: ATCC34554, MIC = concentration exhibiting >90% inhibition of growth vs control, read-out: Minimum Inhibitory Concentration, C.neoformans ATCC 34554. On the procedure:
as §1, §2

Assay [7] deals with Claviceps purpurea CMI 44613. The assay can be described thus: Broth microdilution antifungal susceptibility (MIC), plant pathogenic fungi. The format is cell-based. As to conditions: CMI44613, MIC = concentration exhibiting >90% inhibition of growth vs control, RPMI 1640, 48-72 h, read-out: Minimum Inhibitory Concentration, Claviceps purpurea CMI 44613. On the procedure:
as §1
For orientation: In broth dilution the organism is exposed to a series of concentrations in liquid medium.

The test system of assay [8] is Aspergillus flavus ATCC 11499. Described as above. The following applies: ATCC11499, MIC = concentration exhibiting >90% inhibition of growth vs control, RPMI 1640, 48-72 h, read-out: Minimum Inhibitory Concentration, Aspergillus flavus ATCC 11499. The format is cell-based. How it is done:
as §1

For assay [9], the system named is Fusarium oxysporum CMI 113138. Described as above. In kind it is cell-based. As to conditions: CMI113138, MIC = concentration exhibiting >90% inhibition of growth vs control, RPMI 1640, 48-72 h, read-out: Minimum Inhibitory Concentration, Fusarium oxysporum CMI 113138. On the procedure:
as §1

A further assay has as its system Ustilago maydis PRL 1549. Described as above. In kind it is cell-based. As to conditions: Mycosarcoma maydis, PRL1549; MIC = concentration exhibiting >90% inhibition of growth vs control; RPMI 1640, 48-72 h; read-out: Minimum Inhibitory Concentration, Ustilago maydis PRL 1549. On the procedure: as §1
For assay [10], the system named is Alternaria solani ATCC 11785. Described as above. The following applies: ATCC11785, MIC = concentration exhibiting >90% inhibition of growth vs control, RPMI 1640, 48-72 h, read-out: Minimum Inhibitory Concentration, Alternaria solani ATCC 11785. The format is cell-based. On the procedure:
as §1

A further assay relates to C. albicans ATCC 24433. Description: Spectrophotometric sterol analysis (effect on sterol composition). As to conditions: 0, 0.125, 0.25, 0.50, 1 and 2 μg/ml of compound, 16 h, 28° C.; heptane sterol extract scanned 220-300 nm (FIG. 1). The format is cell-based, Candida albicans. On the procedure: FIG. 1: Spectrophotometric sterol analysis of Candida albicans ATCC 24433 exposed with different concentrations of compounds of the present invention and reference compounds.
Overnight grown culture of C. albicans ATCC 24433 was inoculated (10^6 cells/ml) in 50 ml 1% YPG broth containing 0, 0.125, 0.25, 0.50, 1, and 2 μg/ml of compounds. The flasks were incubated for 16 h with shaking at 28° C. The stationary-phase cells were harvested by centrifugation at 8000 rpm for 10 min and washed once with sterile distilled water. The net wet weight of the cell pellet was determined. To the 100 mg cell pellet, 3 ml of 25% alcoholic potassium hydroxide solution (25 g of KOH and 35 ml of sterile distilled water, brought to 100 ml with 100% ethanol), was added to each pellet and vortex mixed for 1 min. Cell suspensions were transferred to sterile borosilicate glass screw-cap tubes and were incubated in an 85° C. water bath for 1 h. Following incubation, tubes were allowed to cool to room temperature. Sterols were then extracted by addition of a mixture of 1 ml of sterile distilled water and 3 ml of n-heptane followed by vigorous vortex mixing for 3 min. The heptane layer was transferred to a clean borosilicate glass screw-cap tube and stored at −20° C. for as long as 24 h. Prior to analysis, a 20 μl aliquot of sterol extract was diluted fivefold in 100% ethanol and scanned spectrophotometrically between 220 and 300 nm on Spectrophotometer.

For assay [11], the system named is Dekkera bruxellensis ATCC 36234. Description: Broth microdilution antifungal susceptibility (MIC), yeast. In kind it is cell-based. The following applies: Brettanomyces bruxellensis, ATCC36234; MIC = concentration exhibiting >90% inhibition of growth vs control; RPMI 1640, 48-72 h; read-out: Minimum Inhibitory Concentration, Dekkera bruxellensis ATCC 36234. On the procedure:
as §1

Regarding `CC(Cc1ccc(C(C)(C)C)cc1)CN1CC[Si](C)(C)CC1` (racemic) [NDS100414, (R,S)1-(3-(4-(tert-butyl)phenyl)-2-methylpropyl)-4,4-dimethyl-1,4-azasilinane], the “Antifungal activity against the tested plant and human pathogens (in words)” value (shortened to “Antifungal activity”) in assay [1] was “potent antifungal activity”. The MIC was found to be 4 µg/mL (≈ 12.6 µM) in [2]; 4 µg/mL (≈ 12.6 µM) in assay [3]; 0.5 µg/mL (≈ 1.57 µM) in [4]; 64 µg/mL (≈ 202 µM) in [5]; 0.5 µg/mL (≈ 1.57 µM) in the assay on C. albicans ATCC 10231; 2 µg/mL (≈ 6.3 µM) in [6]. Further, the MIC in assay [7] was 4 µg/mL (≈ 12.6 µM); in assay [8], 128 µg/mL (≈ 403 µM); in [9], 64 µg/mL (≈ 202 µM); with Ustilago maydis PRL 1549, 32 µg/mL (≈ 101 µM); in [10] it was 32 µg/mL (≈ 101 µM); in [11], 16 µg/mL (≈ 50.4 µM). For the same molecule, in the assay on C. albicans ATCC 24433, the “Height of sterol absorbance peaks (ergosterol concentration)” value (“Height of sterol absorbance peaks” below) is “dose-dependent decrease in the height of the absorbance peaks”.
Regarding `CC(Cc1ccc(C(C)(C)C)cc1)CN1CCCCC1` (centres unmarked) [Fenpropidin, reference compound], in [1], the “Antifungal activity” value is “potent antifungal activity”. Moreover, the MIC in [2] amounted to 0.25 µg/mL (≈ 0.914 µM); in [3], 0.5 µg/mL (≈ 1.83 µM); in [4], 0.5 µg/mL (≈ 1.83 µM); in assay [5] it was 8 µg/mL (≈ 29.3 µM); in the assay on C. albicans ATCC 10231, 1 µg/mL (≈ 3.66 µM); in [6] it was 0.5 µg/mL (≈ 1.83 µM). Further, the MIC in assay [7] turned out to be 32 µg/mL (≈ 117 µM); in assay [8], 256 µg/mL (≈ 936 µM); in [9] it was 256 µg/mL (≈ 936 µM); in the assay on Ustilago maydis PRL 1549 it was 128 µg/mL (≈ 468 µM); in assay [10] it was 128 µg/mL (≈ 468 µM); in assay [11] it was 128 µg/mL (≈ 468 µM). In addition, the “Height of sterol absorbance peaks” value in the assay with C. albicans ATCC 24433 is recorded as “dose-dependent decrease in the height of the absorbance peaks”.
For `CC(Cc1ccc(C(C)(C)C)cc1)CN1C[C@@H](C)O[C@@H](C)C1` (some centres unmarked) [Fenpropimorph, reference compound], in assay [1], the “Antifungal activity” value is given as “potent antifungal activity”. Further, the MIC in assay [2] was determined as 0.125 µg/mL (≈ 0.412 µM); in [3] it was 0.125 µg/mL (≈ 0.412 µM); in [4] it was 1 µg/mL (≈ 3.3 µM); in assay [5] it was 4 µg/mL (≈ 13.2 µM); in the assay on C. albicans ATCC 10231 it was 0.25 µg/mL (≈ 0.824 µM); in assay [6] it was 0.125 µg/mL (≈ 0.412 µM). Besides, the MIC in [7] is 32 µg/mL (≈ 105 µM); in [8], more than 256 µg/mL; in [9], more than 256 µg/mL; in the assay with Ustilago maydis PRL 1549, more than 256 µg/mL; in [10], more than 256 µg/mL. Moreover, the “Height of sterol absorbance peaks” value with C. albicans ATCC 24433 is “dose-dependent decrease in the height of the absorbance peaks”.
Regarding `CC(Cc1ccc(C(C)(C)C)cc1)C(=O)N1CC[Si](C)(C)CC1` (centres unmarked) [NDS100415], the MIC (in assay [2]; in [3]; in [4]; in [5]; with C. albicans ATCC 10231; in assay [6]) was more than 256 µg/mL throughout. Besides, the MIC (in assay [7]; in assay [8]; in [9]; with Ustilago maydis PRL 1549; in [10]; in [11]) was more than 256 µg/mL each time.
For `CCC(C)(C)c1ccc(CC(C)CN2CC[Si](C)(C)CC2)cc1` (centres unmarked) [NDS100444], the “Antifungal activity” value in [1] is reported as “potent antifungal activity”. In addition, the MIC in assay [2] stood at 8 µg/mL (≈ 24.1 µM); in assay [3], 4 µg/mL (≈ 12.1 µM); in [4], 0.5 µg/mL (≈ 1.51 µM); in assay [5], 64 µg/mL (≈ 193 µM); with C. albicans ATCC 10231, 0.5 µg/mL (≈ 1.51 µM); in [6] it was 2 µg/mL (≈ 6.03 µM). Moreover, the MIC in assay [7] is 16 µg/mL (≈ 48.2 µM); in assay [8], 64 µg/mL (≈ 193 µM); in assay [9], 64 µg/mL (≈ 193 µM); in the assay with Ustilago maydis PRL 1549, less than 2 µg/mL; in assay [10] it was 32 µg/mL (≈ 96.5 µM); in assay [11] it was 4 µg/mL (≈ 12.1 µM). Also, in the assay with C. albicans ATCC 24433, the “Height of sterol absorbance peaks” value is given as “dose-dependent decrease in the height of the absorbance peaks”.
Regarding `CC(Cc1ccc([Si](C)(C)C)cc1)CN1CC[Si](C)(C)CC1` (centres unmarked) [NDS100579, 4,4-dimethyl-1-(2-methyl-3-(4-(trimethylsilyl)phenyl)propyl)-1,4-azasilinane], the MIC is 2 µg/mL (≈ 5.99 µM) in [2]; 2 µg/mL (≈ 5.99 µM) in assay [3]; 0.5 µg/mL (≈ 1.5 µM) in assay [4]; 64 µg/mL (≈ 192 µM) in [5]; 1 µg/mL (≈ 3 µM) with C. albicans ATCC 10231; 2 µg/mL (≈ 5.99 µM) in assay [6]. Also, the MIC was 64 µg/mL (≈ 192 µM) in assay [7]; more than 256 µg/mL in [8]; more than 256 µg/mL in assay [9]; more than 256 µg/mL in the assay on Ustilago maydis PRL 1549; more than 256 µg/mL in assay [10].
Consider `CC(Cc1ccc(C(C)(C)C)cc1)C(=O)NC[Si](C)(C)c1ccccc1` (centres unmarked) [NDS100582], for which the MIC (in [2]; in [3]; in [4]; in assay [5]; in the assay with C. albicans ATCC 10231; in [6]) was more than 256 µg/mL throughout. Moreover, the MIC (in [7]; in assay [8]; in assay [9]; with Ustilago maydis PRL 1549; in assay [10]) was more than 256 µg/mL throughout.
